This note sets out measurements from US20160221948A1, “NITROGEN-CONTAINING SATURATED HETEROCYCLIC COMPOUND” (SUMITOMO CHEMICAL COMPANY, LIMITED, priority 2013, published 2016).

Sequence of human SSTR4 (P31391 whole entry): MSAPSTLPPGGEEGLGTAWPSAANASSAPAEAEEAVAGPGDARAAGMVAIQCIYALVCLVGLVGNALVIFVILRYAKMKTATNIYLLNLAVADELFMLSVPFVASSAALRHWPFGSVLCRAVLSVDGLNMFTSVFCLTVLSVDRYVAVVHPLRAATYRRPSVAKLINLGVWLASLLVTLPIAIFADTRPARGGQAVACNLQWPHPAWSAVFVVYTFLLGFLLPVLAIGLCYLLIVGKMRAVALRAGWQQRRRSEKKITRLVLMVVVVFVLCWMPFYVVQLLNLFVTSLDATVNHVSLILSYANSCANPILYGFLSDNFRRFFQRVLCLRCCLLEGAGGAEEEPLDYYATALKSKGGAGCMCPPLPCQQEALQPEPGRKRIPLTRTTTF

One test addresses human SSTR4 (Homo sapiens, UniProt P31391). Briefly: Evaluation of agonist activities using human SSTR4-stably expressing cells (aequorin luminescence). The settings on record: Tables 25 to 27. More on the design: expressed in transfected cells; host or cells: HEK293. It counts as cell-based. As for the experimental part:
Evaluation of Agonist Activities Using Cells that stably expressing human-derived SSTR4 (human SSTR4-stably expressing cells)
(1) Human SSTR4-Stably Expressing Cells
Human SSTR4-stably expressing cells were prepared, and cultured. Specifically, HEK293 cells, human kidney-derived cells, were used as host cells. By introducing pcDNA3.1 (cat. No. V79020, invitrogen, Carlsbad, Calif., USA) to which human SSTR gene was inserted into HEK293 cells, human SSTR4-stably expressing cell line was obtained. For selection, G418 (cat. No. 16513-84, Nacalai tesque, Japan) was used.
As the culture medium, D-MEM medium (cat. No. 11995, GIBCO, USA), containing 10% FBS and 200 μg/mL G418, was used, the culture was performed in a 225 cm^2 flask (cat. No. 11-006-010, Iwaki, Japan).
At about 80% confluence, the cells were harvested by treating with 20-fold diluted 0.25% Trypsin-EDTA (cat. No. 35554-64, Nacalai, tesque, Japan). The harvested cells were prepared at a reaction medium composed of Hanks Buffer (cat. No. 14065-056, invitrogen, Carlsbad, Calif., USA)/20 mM Hepes (cat. No. 15630-080, invitrogen, Carlsbad, Calif., USA), and 0.1% BSA (cat. No. A7906, Sigma Aldrich, USA) to 70000 cells/mL. Gα16 and apoaequorin were transiently introduced to the harvested cells, and the cells were seeded to a 384 well plate (cat. No. 781090, Greiner, Germany) at about 2000 cells/30 μL/well. On the next day of cell seeding, Coelenterazine H (cat. No. S2011, Promega, USA) was added to each well (10 μL/well) to make a final concentration of 0.5 μmol/L, and the plate was centrifuged. Then, the plate was left at room temperature for 4 hours in shaded state.
(2) Preparation of Test Compounds
DMSO solution of each test compound having 1000-fold larger concentration than the final concentration was prepared. The DMSO solutions were made to have 10-fold concentration than the final concentration with Hanks/20 mmol/L Hepes/0.1% BSA.
(3) Evaluation of Agonist Activity
For detection of luminescence signal due to SSTR4-stimulation, FDSS7000 (manufactured by Hamamatsu Photonics K.K.) was used. To plates having cells and the luminescence substrate, solutions of test compounds were added, then each luminescence signal was measured for 90 seconds, and each relative luminescence unit (RLU) was calculated. Based on luminescence signal from the wells to which a 1 μmol/L somatostatin solution was added taken as 100%, agonist activity of each test compound was evaluated.
On to `COc1cc(Cl)c(Cl)cc1C(C)(C)NC(=O)[C@H]1CCCN(C)C1` [Example 52], for which the “SSTR4 agonist activity compared with other compounds” value is “stronger SSTR4 agonist activity”.

Turning to `CCN1CCC[C@H](C(=O)NC(C)(C)c2ccccc2Cl)C1` [Example 110, (3S)—N-[2-(2-chlorophenyl)propane-2-yl]-1-ethylpiperidine-3-carboxyamide], the “SSTR4 agonist activity compared with other compounds” value is listed as “stronger SSTR4 agonist activity”.

With `CC(C)N1CCC[C@H](C(=O)NC(C)(C)c2cccc3ccccc23)C1` [Example 115, (3S)—N-[2-(naphthalene-1-yl)propane-2-yl]-1-(propane-2-yl)pyperidine-3-carboxamide], the “SSTR4 agonist activity compared with other compounds” value was “stronger SSTR4 agonist activity”. As to `CCN1CCCC(C(=O)NC(C)(C)c2cccc3ccccc23)C1` (stereo not drawn) [Example 116], the “SSTR4 agonist activity compared with other compounds” value is given as “stronger SSTR4 agonist activity”.

The test is the same for the next values; noted with them: luminescence signal; 1 μmol/L somatostatin taken as 100%.
The term EC50 denotes the concentration needed to bring the measured effect to its halfway point. High values mean weaker potency, low ones greater potency. `CN1CCC[C@H](C(=O)NC(C)(C)c2cccc(Cl)c2)C1` [Example 41] displayed an EC50 of 12.8 nM. Consider `CN1CCC[C@H](C(=O)NC(C)(C)c2ccc(Cl)cc2)C1` [Example 42], for which the EC50 is 45.6 nM. `Cc1ccccc1C(C)(C)NC(=O)[C@H]1CCCN(C)C1` [Example 43, (3S)—N-[2-(2-methylphenyl)propane-2-yl]-1-methylpiperidine-3-carboxamide] had an EC50 of 13 nM. The same measure, in the same setting: next, `Cc1cccc(C(C)(C)NC(=O)[C@H]2CCCN(C)C2)c1` [Example 44]: 28.2 nM; `Cc1ccc(C(C)(C)NC(=O)[C@H]2CCCN(C)C2)cc1` [Example 45]: 84.9 nM; `CN1CCC[C@H](C(=O)NC(C)(C)c2cccc(Cl)c2F)C1` [Example 46]: 21.6 nM. Compound `Cc1ccc(C(C)(C)NC(=O)[C@H]2CCCN(C)C2)cc1Cl` [Example 47, (3S)—N-[2-(3-chloro-4-methylphenyl)propane-2-yl]-1-methylpiperidine-3-carboxamide] registered an EC50 of 8 nM. With `Cc1cc(C(C)(C)NC(=O)[C@H]2CCCN(C)C2)ccc1Cl` [Example 48], the midpoint of the response, the EC50, lay at 10 nM.

As for `Cc1ccc(C)c(C(C)(C)NC(=O)[C@H]2CCCN(C)C2)c1` [Example 49], the EC50 was determined as 12 nM. As to `COc1ccc(Cl)cc1C(C)(C)NC(=O)[C@H]1CCCN(C)C1` [Example 51, (3S)—N-[2-(5-chloro-2-methoxylphenyl)propane-2-yl]-1-methylpiperidine-3-carboxamide], the EC50 came out at 5 nM. `COc1cc(Cl)c(Cl)cc1C(C)(C)NC(=O)[C@H]1CCCN(C)C1` [Example 52] returned an EC50 of 1.2 nM. Same read-out and setting: the result for `COc1ccccc1C(C)(C)NC(=O)[C@H]1CCCN(C)C1` [Example 53] reads 8.8 nM; that for `COc1ccc(F)cc1C(C)(C)NC(=O)[C@H]1CCCN(C)C1` [Example 54, (3S)—N-[2-(5-fluoro-2-methoxylphenyl)propane-2-yl]-1-methylpiperidine-3-carboxamide], 8.2 nM. Consider `CN1CCC[C@H](C(=O)NC(C)(C)c2ccccn2)C1` [Example 56], for which the EC50 was greater than 100 nM.

The compound `CN1CCC[C@H](C(=O)NC(C)(C)c2cccnc2)C1` [Example 57] came in with an EC50 greater than 100 nM. For the compound `CN1CCC[C@H](C(=O)NC(C)(C)c2ccncc2)C1` [Example 58], the EC50 was greater than 100 nM. As to `CN1CCC[C@H](C(=O)NC(C)(C)c2ccsc2)C1` [Example 59], the EC50 is greater than 100 nM. `CN1CCC[C@H](C(=O)NC(C)(C)c2ccccc2OC(F)(F)F)C1` [Example 60, (3S)—N-{2-[2-(trifluoromethoxy)phenyl]propane-2-yl}-1-methylpiperidine-3-carboxamide] returned an EC50 of 4.8 nM.

`CN1CCC[C@H](C(=O)NC(C)(C)c2cccc(S(C)(=O)=O)c2)C1` [Example 62] gave an EC50 greater than 100 nM. For `CN1CCC[C@H](C(=O)NC(C)(C)c2ccc(S(C)(=O)=O)cc2)C1` [Example 63], the EC50 is greater than 100 nM. For `CN1CCC[C@H](C(=O)NC(C)(C)c2ccccc2S(C)(=O)=O)C1` [Example 64], the EC50 was greater than 100 nM. For `CSc1ccccc1C(C)(C)NC(=O)[C@H]1CCCN(C)C1` [Example 65], the EC50 stood at 6.2 nM. Turning to `CN1CCC[C@H](C(=O)NC(C)(C)c2ccccc2OC(F)F)C1` [Example 66], the EC50 came to 20.5 nM. Compound `CN1CCC[C@H](C(=O)NC(C)(C)c2ccccc2Br)C1` [Example 67, (3S)—N-[2-(2-bromophenyl)propane-2-yl]-1-methylpiperidine-3-carboxamide] displayed an EC50 of 1.5 nM.

In turn, `CN1CCC[C@H](C(=O)NC(C)(C)c2ccc(Br)cc2)C1` [Example 68] registered an EC50 greater than 100 nM. The compound `CN1CCC[C@H](C(=O)NC(C)(C)c2ccc(F)cc2)C1` [Example 69] displayed a concentration giving a half-maximal response (EC50) greater than 100 nM. Same read-out and setting: next, `COc1cccc(C(C)(C)NC(=O)[C@H]2CCCN(C)C2)c1` [Example 70]: greater than 100 nM. Still for that read-out and setting: the result for `CN1CCC[C@H](C(=O)NC(C)(C)c2cccc(F)c2Cl)C1` [Example 71, (3S)—N-[2-(2-chloro-3-fluorophenyl)propane-2-yl]-1-methylpiperidine-3-carboxamide] reads 3.3 nM; that for `CN1CCC[C@H](C(=O)NC(C)(C)c2ccc(F)cc2Cl)C1` [Example 72, (3S)—N-[2-(2-chloro-4-fluorohenyl)propane-2-yl]-1-methylpiperidine-3-carboxamide], 2.8 nM. Consider `CN1CCC[C@H](C(=O)NC(C)(C)c2cc(F)ccc2Cl)C1` [Example 73, (3S)—N-[2-(2-chloro-5-fluorohenyl)propane-2-yl]-1-methylpiperidine-3-carboxamide], for which a half-maximal response (EC50) required 7.1 nM. Take `CN1CCC[C@H](C(=O)NC(C)(C)c2c(F)cccc2Cl)C1` [Example 74]: the EC50 is 20.9 nM.

In turn, `CN1CCC[C@H](C(=O)NC(C)(C)c2cccc(F)c2)C1` [Example 75] displayed an EC50 of 73.3 nM. In turn, `CCc1ccccc1C(C)(C)NC(=O)[C@H]1CCCN(C)C1` [Example 76, (3S)—N-[2-(2-ethylphenyl)propane-2-yl]-1-methylpiperidine-3-carboxamide] displayed an EC50 of 1.9 nM. `CN1CCC(C(=O)NC(C)(C)c2cccc3ccccc23)C1` (stereo not drawn) [Example 77] gave an EC50 of 3 nM. Take `CN1CCC(C(=O)NC(C)(C)c2ccccc2)C1` (stereo not drawn) [Example 78]: the EC50 is greater than 100 nM.

`CN1CC[C@H](C(=O)NC(C)(C)c2ccccc2Cl)C1` [Example 79] came in with an EC50 of 43.5 nM. In the case of `CN1CC[C@@H](C(=O)NC(C)(C)c2ccccc2Cl)C1` [Example 80], the EC50 is greater than 100 nM.

On to `CN1CC(O)CC(C(=O)NC(C)(C)c2cccc3ccccc23)C1` (stereo not drawn) [Example 83], for which the EC50 was 7.4 nM. Turning to `CC1CC(C(=O)NC(C)(C)c2cccc3ccccc23)CN(C)C1` (stereo not drawn) [Example 86], the EC50 was 16.2 nM. On the same count and under the same terms, the result for `COC1CC(C(=O)NC(C)(C)c2cccc3ccccc23)CN(C)C1` (stereo not drawn) [Example 91] reads 2.6 nM. `CN1CC(F)CC(C(=O)NC(C)(C)c2cccc3ccccc23)C1` (stereo not drawn) [Example 92] returned an EC50 of 3.2 nM. Turning to `CN1CC(C(=O)NC(C)(C)c2cccc3ccccc23)CC(C)(C)C1` (stereo not drawn) [Example 93], the EC50 was found to be 6 nM.

The compound `CN1CC(C(=O)NC(C)(C)c2cccc3ccccc23)CC(F)(F)C1` (stereo not drawn) [Example 94] registered an EC50 of 28.8 nM. `CN1CC(C(=O)NC(C)(C)c2cccc(Cl)c2Cl)CCC1(C)C` (stereo not drawn) [Example 97] registered an EC50 of 85 nM. In turn, `CN1CCCC(C(=O)NC(C)(C)c2cccc(Cl)c2Cl)C1c1ccccc1` (stereo not drawn) [Example 98] gave an EC50 greater than 100 nM. `CC1CC(C(=O)NC(C)(C)c2cccc(Cl)c2Cl)CN(C)C1` (stereo not drawn) [Example 100] had an EC50 of 27.9 nM.

`CN1CC(C(=O)NC(C)(C)c2cccc(Cl)c2Cl)CC(F)(F)C1` (stereo not drawn) [Example 101] returned an EC50 of 33.6 nM. `CCC1CCC(C(=O)NC(C)(C)c2cccc(Cl)c2Cl)CN1C` (stereo not drawn) [Example 102] gave an EC50 of 61.8 nM. In turn, `COC1CC(C(=O)NC(C)(C)c2cccc(Cl)c2Cl)CN(C)C1` (stereo not drawn) [Example 103] came in with an EC50 of 31.4 nM.

In the case of `CCN1CCC[C@H](C(=O)NC(C)(C)c2ccccc2Cl)C1` [Example 110, (3S)—N-[2-(2-chlorophenyl)propane-2-yl]-1-ethylpiperidine-3-carboxyamide], the midpoint of the response, the EC50, lay at 2.8 nM.

On to `CCN1CCCC(C(=O)NC(C)(C)c2cccc3ccccc23)C1` (stereo not drawn) [Example 111], for which it took 6.9 nM to reach a half-maximal effect (EC50). `CC(C)(NC(=O)C1CCCN(CCF)C1)c1cccc2ccccc12` (stereo not drawn) [Example 112] returned an EC50 greater than 100 nM. `CC(C)(NC(=O)[C@H]1CCCN(CCF)C1)c1cccc2ccccc12` [Example 113] had an EC50 of 3.1 nM.

With `CCCN1CCC[C@H](C(=O)NC(C)(C)c2cccc3ccccc23)C1` [Example 114], the EC50 was 6.2 nM.

Turning to `CC(C)N1CCC[C@H](C(=O)NC(C)(C)c2cccc3ccccc23)C1` [Example 115, (3S)—N-[2-(naphthalene-1-yl)propane-2-yl]-1-(propane-2-yl)pyperidine-3-carboxamide], the EC50 stood at 1.9 nM. Consider `CCN1CCCC(C(=O)NC(C)(C)c2cccc3ccccc23)C1` (stereo not drawn) [Example 116], for which the EC50 was determined as 1.7 nM.
